Test results taken from PubChem BioAssay (NCI).
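Dose response: 5 concentrations. Exposure: 48 h. Format: 96-well plates. Endpoint: linear interpolation; highest concentration if not reached. GI50 is the concentration that inhibits growth by half. TGI: total growth inhibition.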

Legend:
Assay in all cases: DTP human tumour cell line panel, 48 h
K-562 leukemia = system: K-562 leukemia
LOX IMVI melanoma = system: LOX IMVI melanoma
UACC-257 melanoma = system: UACC-257 melanoma
IGROV1 ovarian = system: IGROV1 ovarian
OVCAR-3 ovarian = system: OVCAR-3 ovarian
ACHN renal = system: ACHN renal
NCI-H23 lung = system: NCI-H23 lung
NCI/ADR-RES ovarian = system: NCI/ADR-RES ovarian
A549 NSCLC = system: A549 NSCLC
MDA-MB-231 breast = system: MDA-MB-231 breast
HOP-62 NSCLC = system: HOP-62 NSCLC
SK-MEL-5 melanoma = system: SK-MEL-5 melanoma
SF-539 CNS = system: SF-539 CNS
CAKI-1 renal = system: CAKI-1 renal
UO-31 renal = system: UO-31 renal
SNB-75 CNS = system: SNB-75 CNS
MCF7 breast = system: MCF7 breast
M14 melanoma = system: M14 melanoma
HOP-92 NSCLC = system: HOP-92 NSCLC
OVCAR-5 ovarian = system: OVCAR-5 ovarian
KM12 colon = system: KM12 colon
RPMI-8226 leukemia = system: RPMI-8226 leukemia
HT29 colon = system: HT29 colon
HS 578T breast = system: HS 578T breast
SK-MEL-2 melanoma = system: SK-MEL-2 melanoma
EKVX NSCLC = system: EKVX NSCLC
MOLT-4 leukemia = system: MOLT-4 leukemia
NCI-H460 lung = system: NCI-H460 lung
RXF 393 renal = system: RXF 393 renal
SNB-19 CNS = system: SNB-19 CNS
HCT-116 colon = system: HCT-116 colon
786-0 renal = system: 786-0 renal
SW-620 colon = system: SW-620 colon
T-47D breast = system: T-47D breast
OVCAR-8 ovarian = system: OVCAR-8 ovarian
U251 CNS = system: U251 CNS
SR leukemia = system: SR leukemia
NCI-H522 lung = system: NCI-H522 lung
COLO 205 colon = system: COLO 205 colon
OVCAR-4 ovarian = system: OVCAR-4 ovarian
MALME-3M melanoma = system: MALME-3M melanoma
DU-145 prostate = system: DU-145 prostate
BT-549 breast = system: BT-549 breast
SN12C renal = system: SN12C renal
TK-10 renal = system: TK-10 renal
SK-MEL-28 melanoma = system: SK-MEL-28 melanoma
HL-60(TB) leukemia = system: HL-60(TB) leukemia
HCT-15 colon = system: HCT-15 colon
SK-OV-3 ovarian = system: SK-OV-3 ovarian
MDA-MB-435 = system: MDA-MB-435
SF-295 CNS = system: SF-295 CNS
CCRF-CEM leukemia = system: CCRF-CEM leukemia
HCC-2998 colon = system: HCC-2998 colon
SF-268 CNS = system: SF-268 CNS
UACC-62 melanoma = system: UACC-62 melanoma
A498 renal = system: A498 renal
PC-3 prostate = system: PC-3 prostate
NCI-H226 lung = system: NCI-H226 lung

CN(c1ccc(F)cc1)S(=O)(=O)c1ccc(-c2cnc(C3CC3)o2)cc1
GI50 (K-562 leukemia): 39.5 nM | TGI (K-562 leukemia): > 43800 nM | GI50 (LOX IMVI melanoma): 69 nM | TGI (LOX IMVI melanoma): 14100 nM | GI50 (UACC-257 melanoma): 11100 nM | TGI (UACC-257 melanoma): 52600 nM | GI50 (IGROV1 ovarian): 66 nM | TGI (IGROV1 ovarian): > 100000 nM | GI50 (OVCAR-3 ovarian): 41.5 nM | TGI (OVCAR-3 ovarian): 15800 nM | GI50 (ACHN renal): 274 nM | TGI (ACHN renal): > 73100 nM | GI50 (NCI-H23 lung): 358 nM | TGI (NCI-H23 lung): > 100000 nM | GI50 (NCI/ADR-RES ovarian): 57.4 nM | TGI (NCI/ADR-RES ovarian): 21400 nM | GI50 (A549 NSCLC): 180 nM | TGI (A549 NSCLC): > 100000 nM | GI50 (MDA-MB-231 breast): 404 nM | TGI (MDA-MB-231 breast): > 39000 nM | GI50 (HOP-62 NSCLC): 145 nM | TGI (HOP-62 NSCLC): > 100000 nM | GI50 (SK-MEL-5 melanoma): 84.2 nM | TGI (SK-MEL-5 melanoma): 5920 nM | GI50 (SF-539 CNS): 71.8 nM | TGI (SF-539 CNS): 1870 nM | GI50 (CAKI-1 renal): 73.3 nM | TGI (CAKI-1 renal): > 100000 nM | GI50 (UO-31 renal): 766 nM | TGI (UO-31 renal): > 94100 nM | GI50 (SNB-75 CNS): 12.4 nM | TGI (SNB-75 CNS): 25800 nM | GI50 (MCF7 breast): 39.6 nM | TGI (MCF7 breast): 50900 nM | GI50 (M14 melanoma): 52 nM | TGI (M14 melanoma): 19800 nM | GI50 (HOP-92 NSCLC): 1210 nM | TGI (HOP-92 NSCLC): 11300 nM | GI50 (OVCAR-5 ovarian): 495 nM | TGI (OVCAR-5 ovarian): > 100000 nM | GI50 (KM12 colon): 54.5 nM | TGI (KM12 colon): 32200 nM | GI50 (RPMI-8226 leukemia): 60.6 nM | TGI (RPMI-8226 leukemia): 2510 nM | GI50 (HT29 colon): 44.3 nM | TGI (HT29 colon): 14600 nM | GI50 (HS 578T breast): 176 nM | TGI (HS 578T breast): > 100000 nM | GI50 (SK-MEL-2 melanoma): 3740 nM | TGI (SK-MEL-2 melanoma): 40900 nM | GI50 (EKVX NSCLC): 289 nM | TGI (EKVX NSCLC): > 100000 nM | GI50 (MOLT-4 leukemia): 80.6 nM | TGI (MOLT-4 leukemia): > 37500 nM | GI50 (NCI-H460 lung): 46.9 nM | TGI (NCI-H460 lung): 13300 nM | GI50 (RXF 393 renal): 69.8 nM | TGI (RXF 393 renal): 366 nM | GI50 (SNB-19 CNS): 102 nM | TGI (SNB-19 CNS): > 100000 nM | GI50 (HCT-116 colon): 41.3 nM | GI50 (786-0 renal): 108 nM | TGI (786-0 renal): > 41700 nM | GI50 (SW-620 colon): 66.4 nM | TGI (SW-620 colon): > 100000 nM | GI50 (T-47D breast): 75.9 nM | TGI (T-47D breast): 71300 nM | GI50 (OVCAR-8 ovarian): 553 nM | TGI (OVCAR-8 ovarian): > 100000 nM | GI50 (U251 CNS): 69.4 nM | TGI (U251 CNS): > 39100 nM | GI50 (SR leukemia): 31.5 nM | GI50 (NCI-H522 lung): 78.9 nM | TGI (NCI-H522 lung): 1700 nM | GI50 (COLO 205 colon): 98.8 nM | TGI (COLO 205 colon): 2400 nM | GI50 (OVCAR-4 ovarian): 772 nM | TGI (OVCAR-4 ovarian): > 100000 nM | GI50 (MALME-3M melanoma): 11600 nM | TGI (MALME-3M melanoma): 47600 nM | GI50 (DU-145 prostate): 279 nM | TGI (DU-145 prostate): > 76700 nM | GI50 (BT-549 breast): 410 nM | TGI (BT-549 breast): 14100 nM | GI50 (SN12C renal): 887 nM | TGI (SN12C renal): 39100 nM | GI50 (TK-10 renal): 26400 nM | TGI (TK-10 renal): > 100000 nM | GI50 (SK-MEL-28 melanoma): 2600 nM | TGI (SK-MEL-28 melanoma): > 100000 nM | GI50 (HL-60(TB) leukemia): 28.8 nM | TGI (HL-60(TB) leukemia): 306 nM | GI50 (HCT-15 colon): 49.9 nM | TGI (HCT-15 colon): > 50000 nM | GI50 (SK-OV-3 ovarian): 2520 nM | TGI (SK-OV-3 ovarian): > 94600 nM | GI50 (MDA-MB-435): 28.4 nM | TGI (MDA-MB-435): 94.8 nM | GI50 (SF-295 CNS): 52 nM | TGI (SF-295 CNS): 25100 nM | GI50 (CCRF-CEM leukemia): 51.8 nM | TGI (CCRF-CEM leukemia): > 100000 nM | GI50 (HCC-2998 colon): 375 nM | TGI (HCC-2998 colon): > 50100 nM | GI50 (SF-268 CNS): 1120 nM | TGI (SF-268 CNS): > 100000 nM | GI50 (UACC-62 melanoma): 48.1 nM | TGI (UACC-62 melanoma): 19500 nM | GI50 (A498 renal): 43 nM | TGI (A498 renal): 493 nM | GI50 (PC-3 prostate): 136 nM | TGI (PC-3 prostate): > 67800 nM | GI50 (NCI-H226 lung): 239 nM | TGI (NCI-H226 lung): 30800 nM
